pIC50: −log10 of the molar value. A value given as a limit tells only on which side of the number the result lay.

Results on 49 compounds are retold here after US8802720B2, “Acylamino-substituted fused cyclopentanecarboxylic acid derivatives and their use as pharmaceuticals” (SANOFI, priority 2008, dated 2014).

Sequence of human Edg-2 receptor (LPA1 receptor) (Q92633 whole entry): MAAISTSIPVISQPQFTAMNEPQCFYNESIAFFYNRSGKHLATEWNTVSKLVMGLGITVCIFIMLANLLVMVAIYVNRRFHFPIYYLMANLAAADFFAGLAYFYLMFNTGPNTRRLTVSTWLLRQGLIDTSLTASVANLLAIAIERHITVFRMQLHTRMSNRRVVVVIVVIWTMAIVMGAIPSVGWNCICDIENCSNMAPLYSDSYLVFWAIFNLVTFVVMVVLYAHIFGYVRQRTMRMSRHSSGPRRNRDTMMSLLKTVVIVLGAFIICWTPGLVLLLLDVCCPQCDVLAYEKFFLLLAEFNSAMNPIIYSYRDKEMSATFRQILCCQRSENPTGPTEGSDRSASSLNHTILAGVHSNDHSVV

For this experiment, the target named is human Edg-2 receptor (LPA1 receptor) (Homo sapiens, UniProt Q92633). Put plainly: Edg-2 receptor inhibition by FLIPR calcium fluorescence measurement (LPA-mediated calcium liberation). In kind it is cell-based. Particulars: CHO cells stably overexpressing human Edg-2 receptor; LPA 18:1 100 nM; fluo-4 fluorescence; triplicate; read-out: Inhibitory concentrations IC50 for inhibition of the Edg-2 receptor. How it is done:
A) Determination of Edg-2 Receptor Inhibition by Fluorescence Imaging Plate Reader (FLIPR) Measurements
The inhibition of the Edg-2 receptor (LPA1 receptor) by the compounds of the invention was quantified by the inhibitory effect on the LPA-mediated calcium liberation in a cell-based calcium fluorescence assay by use of Chinese hamster ovarian (CHO) cells in which the human Edg-2 receptor was stably overexpressed (FIp-In system, Invitrogen). […] Changes in intracellular calcium were determined by fluorescence measurement with the calcium-sensitive dye fluo-4 (Invitrogen) in a fluorescence imaging plate reader (FLIPR, […]).
CHO cells stably overexpressing the human Edg-2 receptor were seeded (40.000 per well) in black clear-bottomed poly-D-lysine-coated 96 well plates (Becton Dickinson, Biocoat cellware) approximately 18-24 h prior to the experiments. Cells were grown in an incubator at 37° C., 5% carbon dioxide and 95% humidity in cell culture media based on F-12 glutamax media (Gibco, #31765) supplemented with 1% (vol/vol) penicilline/streptomycine (PAN, #P06-07100), 10% (vol/vol) fetal calf serum (FCS, PAA, #A15-151) and hygromycin B (Invitrogen, #10687-010) 300 mg/l (final concentrations).
Prior to the FLIPR experiment, cells were loaded with fluo-4 acetoxymethyl ester (fluo-4 AM, Invitrogen, #F14202) for 60 min in an incubator at 37° C., 5% carbon dioxide and 95% humidity in dye-loading buffer consisting of Hanks' Balanced Salt Solution (HBSS, Invitrogen, #14065049) supplemented with fluo-4 AM at 2 μM (all data given for final concentration), Pluronic® F-127 0.05% (vol/vol) (Invitrogen, #P-3000 MP), HEPES 20 mM (Gibco, #15630), probenecid 2.5 mM (Sigma, #P-8761) and bovine serum albumin 0.05% (BSA, Sigma, #A-6003), adjusted to pH 7.5 with sodium hydroxide. During cell loading, fluo-4 AM is cleaved by intracellular esterase resulting in trapping of the dye fluo-4 within the cells. Loading was terminated by washing of the cells in a cell washer (Tecan Power washer) three times with the buffer specified afore but without fluo-4 AM and BSA. This latter buffer was also used as the buffer in the subsequent cell fluorescence measurements.
The dye-loaded and washed cells were pre-incubated for approximately 5 min with various concentrations of the test compound added as a solution in DMSO (0.3% vol/vol maximum final concentration of DMSO), or with DMSO in the respective concentration only (positive control). Subsequent addition of LPA (18:1, 1-oleoyl-sn-glycerol 3-phosphate; 100 nM final concentration) leads to liberation of intracellular calcium from internal stores resulting in a large transient increase of the fluo-4 fluorescence signal which was monitored over approximately 3 min. The percent inhibition caused by the test compound was determined from the maximum fluorescence response after LPA addition to cells pre-incubated with the compound as compared to the maximum fluorescence response after LPA addition to cells pre-incubated with DMSO only. All fluorescence values were corrected for the baseline fluorescence values obtained with cells which were pre-incubated with DMSO only and were not treated with LPA (baseline control). All measurements were performed in triplicate. From the percent inhibitions the inhibitory concentration IC50 was determined.
For the compound `COc1ccc(C(=O)NC2(C(=O)O)Cc3ccccc3C2)cc1OCC1CCCN(C)C1` (stereo not shown) [Example 48], the pIC50 is 4.52 to 6.00. The value for `CCN(CC)CCCOc1cc(C(=O)NC2(C(=O)O)Cc3ccccc3C2)ccc1OC` [Example 49] was 4.52 to 6.00; that for `COc1ccc(C(=O)NC2(C(=O)O)Cc3ccccc3C2)cc1OCC1CC=CCC1` (stereo not shown) [Example 50] was 6.00 to 7.00. The same measure for `COc1ccc(C(=O)NC2(C(=O)O)Cc3ccccc3C2)cc1OCc1nccc(Cl)c1OC` [Example 52]: 4.52 to 6.00; for `COc1ccc(C(=O)NC2(C(=O)O)Cc3ccccc3C2)cc1OCCCC1CC(c2ccccc2)=NO1` (stereo not shown) [Example 53]: 4.52 to 6.00. The same measure for `COc1ccc(C(=O)NC2(C(=O)O)Cc3ccccc3C2)cc1OCCc1cc(-c2ccc(Cl)cc2)no1` [Example 54]: 4.52 to 6.00; for `COc1ccnc(COc2cc(C(=O)NC3(C(=O)O)Cc4ccccc4C3)ccc2OC)c1` [Example 55]: 4.52 to 6.00; for `CCC1(COc2cc(C(=O)NC3(C(=O)O)Cc4ccccc4C3)ccc2OC)COCOC1` [Example 56]: 4.52 to 6.00. On to `COc1ccc(C(=O)NC2(C(=O)O)Cc3ccccc3C2)cc1OCC1CCC(C)CC1` (stereo not shown) [Example 57], for which the pIC50 is 4.52 to 6.00. The same measure for `C=CC1CN2CCC1CC2COc1cc(C(=O)NC2(C(=O)O)Cc3ccccc3C2)ccc1OC` (stereo not shown) [Example 58]: 4.52 to 6.00.

For the compound `COc1ccc(C(=O)NC2(C(=O)O)Cc3ccccc3C2)cc1OCCCCC(C)C` [Example 59], the pIC50 is 4.52 to 6.00. For the compound `COc1ccc(CCCCOc2cc(C(=O)NC3(C(=O)O)Cc4ccccc4C3)ccc2OC)cc1` [Example 60], the pIC50 was 4.52 to 6.00.

As for `COc1ccc(C(=O)NC2(C(=O)O)Cc3ccccc3C2)cc1OCCCC1CCCCC1` [Example 61], the pIC50 was 4.52 to 6.00. Consider `COc1ccc(C(=O)NC2(C(=O)O)Cc3ccccc3C2)cc1OCCCc1ccc(Cl)cc1` [Example 62], for which the pIC50 was 4.52 to 6.00. As for `COc1ccc(C(=O)NC2(C(=O)O)Cc3ccccc3C2)cc1OCCC1CCCN1C` (stereo not shown) [Example 64], the pIC50 was 4.52 to 6.00. The same measure for `COc1ccc(C(=O)NC2(C(=O)O)Cc3ccccc3C2)cc1OCc1cc(C)ccc1C` [Example 65]: 4.52 to 6.00; for `COc1ccc(C(=O)NC2(C(=O)O)Cc3ccccc3C2)cc1OCCC1CCN(Cc2ccccc2)CC1` [Example 66]: 4.52 to 6.00.

For `CCOC(=O)N1CCN(CCOc2cc(C(=O)NC3(C(=O)O)Cc4ccccc4C3)ccc2OC)CC1` [Example 67], the pIC50 was 4.52 to 6.00. The value for `COc1ccc(C(=O)NC2(C(=O)O)Cc3ccccc3C2)cc1OCCCN1CCCC1=O` [Example 68] was 4.52 to 6.00; that for `COc1ccc(C(=O)NC2(C(=O)O)Cc3ccccc3C2)cc1OCc1nc2ccccc2n1C` [Example 69] was 4.52 to 6.00; that for `COc1ccc(C(=O)NC2(C(=O)O)Cc3ccccc3C2)cc1OCCc1nc(-c2ccccc2)oc1C` [Example 70] was 4.52 to 6.00.

Take `CCn1cc(COc2cc(C(=O)NC3(C(=O)O)Cc4ccccc4C3)ccc2OC)cn1` [Example 71]: the pIC50 was 4.52 to 6.00. The value for `COc1ccc(C(=O)NC2(C(=O)O)Cc3ccccc3C2)cc1OCc1csc2ccccc12` [Example 72] was 4.52 to 6.00; that for `COc1ccc(C(=O)NC2(C(=O)O)Cc3ccccc3C2)cc1OCc1ccc(-n2ccnc2)cc1` [Example 73] was 4.52 to 6.00. The value for `COc1ccc(C(=O)NC2(C(=O)O)Cc3ccccc3C2)cc1OCc1cc(-c2csc(C)n2)on1` [Example 74] was 4.52 to 6.00. The value for `COc1ccc(C(=O)NC2(C(=O)O)Cc3ccccc3C2)cc1OCCSc1nccn1C` [Example 75] was 4.52 to 6.00; that for `COc1ccc(C(=O)NC2(C(=O)O)Cc3ccccc3C2)cc1OCc1ccc(N2CCCC2)nc1` [Example 76] was 4.52 to 6.00; that for `COc1ccc(C(=O)NC2(C(=O)O)Cc3ccccc3C2)cc1OCc1ncc(C)c(NC(C)=O)c1C` [Example 77] was 4.52 to 6.00. In the case of `COc1ccc(C(=O)NC2(C(=O)O)Cc3ccccc3C2)cc1OCC1CCC(C(=O)O)C1` (stereo not shown) [Example 78], the pIC50 is 4.52 to 6.00. In the case of `COc1ccc(C(=O)NC2(C(=O)O)Cc3ccccc3C2)cc1OCc1cn(-c2ccccc2)nn1` [Example 79], the pIC50 was 4.52 to 6.00. Regarding `COc1ccc(C(=O)NC2(C(=O)O)Cc3ccccc3C2)cc1OCc1cc(C)n(C)n1` [Example 80], the pIC50 was 4.52 to 6.00. In the case of `COc1ccc(C(=O)NC2(C(=O)O)Cc3ccccc3C2)cc1OCCC1=CC[C@H]2C[C@@H]1C2(C)C` [Example 81], the pIC50 was > 7.00.

With `COc1ccc(C(=O)NC2(C(=O)O)Cc3ccccc3C2)cc1OCC1CC1C` (stereo not shown) [Example 82], the pIC50 was 4.52 to 6.00.

For `CC[C@H](COc1cc(C(=O)NC2(C(=O)O)Cc3ccccc3C2)ccc1OC)N1Cc2ccccc2C1` [Example 83], the pIC50 is 4.52 to 6.00.

With `COc1ccc(C(=O)NC2(C(=O)O)Cc3ccccc3C2)cc1OCCCCCC(=O)O` [Example 84], the pIC50 was 4.52 to 6.00. The value for `COc1ccc(C(=O)NC2(C(=O)O)Cc3ccccc3C2)cc1OCCCN1CCCCC1` [Example 85] was 4.52 to 6.00; that for `COc1ccc(C(=O)NC2(C(=O)O)Cc3ccccc3C2)cc1OCCC1CC1` [Example 86] was 4.52 to 6.00; that for `COc1ccc(C(=O)NC2(C(=O)O)Cc3ccccc3C2)cc1OCC1C[C@H]2C=C[C@@H]1C2` (stereo partly shown) [Example 87] was 4.52 to 6.00. The same measure for `COc1ccc(C(=O)NC2(C(=O)O)Cc3ccccc3C2)cc1OCc1c(C)noc1C` [Example 88]: 4.52 to 6.00; for `COc1ccc(C(=O)NC2(C(=O)O)Cc3ccccc3C2)cc1OCc1snnc1-c1ccccc1` [Example 89]: 4.52 to 6.00. For `COc1ccc(C(=O)NC2(C(=O)O)Cc3ccccc3C2)cc1OCC1CC(c2ccccn2)=NO1` (stereo not shown) [Example 90], the pIC50 is 4.52 to 6.00. Regarding `COc1ccc(C(=O)NC2(C(=O)O)Cc3ccccc3C2)cc1OCCc1cccc(C#N)c1` [Example 94, 2-{3-[2-(3-Cyano-phenyl)-ethoxy]-4-methoxy-benzoylamino}-indane-2-carboxylic acid], the pIC50 was > 7.00. The same measure for `COc1ccc(C(=O)NC2(C(=O)O)Cc3ccccc3C2)cc1OCCc1cccc(C(N)=O)c1` [Example 95, 2-{3-[2-(3-Carbamoyl-phenyl)-ethoxy]-4-methoxy-benzoylamino}-indane-2-carboxylic acid]: 4.52 to 6.00; for `COc1ccc(C(=O)NC2(C(=O)O)Cc3ccccc3C2)cc1OCCc1cccc(C(=O)O)c1` [Example 96, 2-{3-[2-(3-Carboxy-phenyl)-ethoxy]-4-methoxy-benzoylamino}-indane-2-carboxylic acid]: 4.52 to 6.00. The value for `COc1ccc(C(=O)NC2(C(=O)O)Cc3cscc3C2)cc1OCCc1cccc(C)c1` [Example 98, 5-[4-Methoxy-3-(2-m-tolyl-ethoxy)-benzoylamino]-5,6-dihydro-4H-cyclopenta[c]thiophene-5-carboxylic acid] was > 7.00. The same measure for `COc1ccc(C(=O)NC2(C(=O)O)Cc3ccsc3C2)cc1OCCc1cccc(C)c1` (stereo not shown) [Example 99, 5-[4-Methoxy-3-(2-m-tolyl-ethoxy)-benzoylamino]-5,6-dihydro-4H-cyclopenta[b]thiophene-5-carboxylic acid]: > 7.00. On to `COc1ccc(C(=O)NC2(C(=O)O)Cc3cc(Cl)sc3C2)cc1OCCc1cccc(C)c1` (stereo not shown) [Example 100, 2-Chloro-5-[4-methoxy-3-(2-m-tolyl-ethoxy)-benzoylamino]-5,6-dihydro-4H-cyclopenta[b]thiophene-5-carboxylic acid], for which the pIC50 was > 7.00. For `COc1ccc(C(=O)NC2(C(=O)O)Cc3cccnc3C2)cc1OCCc1cccc(C)c1` (stereo not shown) [Example 101, 6-[4-Methoxy-3-(2-m-tolyl-ethoxy)-benzoylamino]-6,7-dihydro-5H-[1]pyrindine-6-carboxylic acid], the pIC50 is 4.52 to 6.00. The same measure for `CC(=O)c1sc(C(=O)NC2(C(=O)O)Cc3ccccc3C2)cc1OCCc1cccc(C)c1` [Example 102, 2-{[5-Acetyl-4-(2-m-tolyl-ethoxy)-thiophene-2-carbonyl]-amino}-indane-2-carboxylic acid]: 6.00 to 7.00.
